Test system: DMS 114 tumor spheroids, viability % test/control
Test: Anticancer human tumor DMS 114 cell line growth inhibition;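 note: spheroids exposed to compounds for 7 days before read-out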;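 for viability, T/C: luminescence used as a proxy for viable cells; 100% = DMSO vehicle control viability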
Conditions: spheroids with HUVEC and MSC; for IC50: curve of first compound; for viability, T/C: stronger effect = lower value
Summary of the method: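 Single agents and combinations were tested on spheroids built from tumor cells plus HUVEC and hMSC, at half-log dilutions starting at or near clinical Cmax, else 10 microM; final DMSO 0.25% (v/v).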

[1] = second compound 0.003 µM, first compound 0.0316 µM
[2] = second compound 0.003 µM, first compound 0.1 µM
[3] = second compound 0.003 µM, first compound 0.316 µM
[4] = second compound 0.003 µM, first compound 1 µM
[5] = second compound 0.003 µM, first compound 3.16 µM
[6] = second compound 0.003 µM, first compound 10 µM
[7] = second compound 0.00949 µM, first compound 0.0316 µM
[8] = second compound 0.00949 µM, first compound 0.1 µM
[9] = second compound 0.00949 µM, first compound 0.316 µM
[10] = second compound 0.00949 µM, first compound 1 µM
[11] = second compound 0.00949 µM, first compound 3.16 µM
[12] = second compound 0.00949 µM, first compound 10 µM
[13] = second compound 0.03 µM, first compound 0.0316 µM
[14] = second compound 0.03 µM, first compound 0.1 µM
[15] = second compound 0.03 µM, first compound 0.316 µM
[16] = second compound 0.03 µM, first compound 1 µM
[17] = second compound 0.03 µM, first compound 3.16 µM
[18] = second compound 0.03 µM, first compound 10 µM
[19] = second compound 0.0949 µM, first compound 0.0316 µM
[20] = second compound 0.0949 µM, first compound 0.1 µM
[21] = second compound 0.0949 µM, first compound 0.316 µM
[22] = second compound 0.0949 µM, first compound 1 µM
[23] = second compound 0.0949 µM, first compound 3.16 µM
[24] = second compound 0.0949 µM, first compound 10 µM
[25] = second compound 0.3 µM, first compound 0.0316 µM
[26] = second compound 0.3 µM, first compound 0.1 µM
[27] = second compound 0.3 µM, first compound 0.316 µM
[28] = second compound 0.3 µM, first compound 1 µM
[29] = second compound 0.3 µM, first compound 3.16 µM
[30] = second compound 0.3 µM, first compound 10 µM

| SMILES | IC50 (second compound 0.003 µM) | IC50 (second compound 0.00949 µM) | IC50 (second compound 0.03 µM) | IC50 (second compound 0.0949 µM) | IC50 (second compound 0.3 µM) | viability, T/C [1] | viability, T/C [2] | viability, T/C [3] | viability, T/C [4] | viability, T/C [5] | viability, T/C [6] | viability, T/C [7] | viability, T/C [8] | viability, T/C [9] | viability, T/C [10] | viability, T/C [11] | viability, T/C [12] | viability, T/C [13] | viability, T/C [14] | viability, T/C [15] | also measured |
| --- | --- | --- | --- | --- | --- | --- | --- | --- | --- | --- | --- | --- | --- | --- | --- | --- | --- | --- | --- | --- | --- |
| Cc1cc(C)c(CNC(=O)c2cc(-c3ccc(CN4CCOCC4)cc3)cc3c2cnn3C2CCCC2)c(=O)[nH]1 + CC[C@@]1(O)C(=O)OCc2c1cc1n(c2=O)Cc2cc3c(CN(C)C)c(O)ccc3nc2-1 | > 10000 nM | > 10000 nM | < 31.6 nM | < 31.6 nM | < 31.6 nM | 112% | 117% | 108% | 106% | 98.2% | 59.6% | 96.2% | 105% | 95.4% | 97.1% | 84.9% | 58.9% | 33.3% | 39.5% | 28.3% | viability, T/C [16]: 35.5%; viability, T/C [17]: 32.1%; viability, T/C [18]: 30.7%; viability, T/C [19]: 16%; viability, T/C [20]: 15.5%; viability, T/C [21]: 14.8%; viability, T/C [22]: 16%; viability, T/C [23]: 17.2%; viability, T/C [24]: 15.5%; viability, T/C [25]: 9.14%; viability, T/C [26]: 9.67%; viability, T/C [27]: 9.76%; viability, T/C [28]: 10.1%; viability, T/C [29]: 12.1%; viability, T/C [30]: 17.6% |
| [2H]c1nc(C)nc([2H])c1-c1cc(NC[C@@H](C)c2cccc3c(C(=O)NC)ccnc23)ncn1 + CC[C@@]1(O)C(=O)OCc2c1cc1n(c2=O)Cc2cc3c(CN(C)C)c(O)ccc3nc2-1 | > 10000 nM | > 10000 nM | < 31.6 nM | < 31.6 nM | < 31.6 nM | 114% | 113% | 112% | 121% | 105% | 88.5% | 93% | 96.2% | 92.4% | 79% | 68.3% | 58.9% | 35.3% | 35% | 32.8% | viability, T/C [16]: 27.7%; viability, T/C [17]: 24%; viability, T/C [18]: 18.9%; viability, T/C [19]: 17%; viability, T/C [20]: 16.7%; viability, T/C [21]: 17.1%; viability, T/C [22]: 16.9%; viability, T/C [23]: 13.7%; viability, T/C [24]: 13.7%; viability, T/C [25]: 11%; viability, T/C [26]: 11%; viability, T/C [27]: 11.4%; viability, T/C [28]: 9.27%; viability, T/C [29]: 12.8%; viability, T/C [30]: 12.3% |
